US20200037609A1, “HERBICIDAL COMPOSITIONS AND METHODS OF USE THEREOF” (The Regents of the University of California, priority 2017, published 2020)
Entries after “also recorded” stand apart in the source; their conditions may differ.

Assays:
[1] = system: S. cerevisiae ΔILV3 expressing fDHAD; experiment: Growth inhibition of S. cerevisiae ΔILV3 in ILV dropout media; type: cell-based, Saccharomyces cerevisiae
Experimental: Growth inhibition assay of S. cerevisiae on plates or in the tubes. S. cerevisiae was grown in isoleucine, leucine and valine (ILV) dropout media (20 g/L glucose, 0.67 g/L Difco™ Yeast Nitrogen Base w/o amino acids, 18 mg/L adenine, arginine 76 mg/L, asparagine 76 mg/L, aspartic acid 76 mg/L, glutamic acid 76 mg/L, histidine 76 mg/L, lysine 76 mg/L, methionine 76 mg/L, phenylalanine 76 mg/L, serine 76 mg/L, threonine 76 mg/L, tryptophan 76 mg/L, tyrosine 76 mg/L) to test growth inhibition of AA on S. cerevisiae. S. cerevisiae was incubated at 28° C. until OD600 of the control strain without AA treatment reached about 0.8. The ratio of yeast OD600 in media with AA treatment to yeast OD600 in media without AA was calculated as the percentage of growth inhibition. The inhibition curve was plotted as percentage of inhibition versus AA concentrations. […] The growth curves of TY05, TY06 and TY07 were also plotted (FIG. 29A-29D). The OD600 was recorded for every 20 minutes over a total of 50 h. The inhibition percentage can be calculated by following equation: […]

green bean seedlings = experiment: Agar-based plant growth inhibition assay on MS media; type: in vivo; conditions: 50 μM aspterric acid, day 3 and day 7
Experimental: Sterile green bean seedlings were plated on MS media containing 50 μM aspterric acid and 1% DMSO (to increase the solubility of aspterric acid) on day 0. MS media containing only 1% DMSO was used as a control. Growth was assessed on day 3 and day 7.

[2] = system: astD transgene-expressing A. thaliana; experiment: AA resistance of astD transgenic plants (media and spray); type: in vivo, Arabidopsis thaliana
Experimental: (§1) Growth inhibition assay of plants on plates or in the tubes. MS (2.16 g/L Murashige and Skoog basal medium, 8 g/L sucrose, 8 g/L agar) media was used to test the growth inhibition of AA on A. thaliana, Solanum lycopersicum, and Zea mays. A. thaliana, S. lycopersicum, G. max and Z. mays were grown under long day condition (16/8 h light/dark) using cool-white fluorescence bulbs as the light resource at 23° C. AA was dissolved in ethanol and added to the media before inoculating strains or growing plants. The media of control treatment contains the same amount of ethanol, but without AA.
Plant growth inhibition assay by spraying. AA was firstly dissolved in ethanol and then added to solvent (0.06 g/L Finale® Bayer Inc.+20 g/L EtOH). The control plants were treated with solvent containing ethanol only. A. thaliana that are resistant to glufosinate (containing the bar gene) were grown under long day conditions (16/8 h light/dark) using cool-white fluorescence bulbs as the light resource at 23° C. Spraying treatments began when the seeds germinated, and was repeated once every two days with approximately 0.4 mL AA solution per time per pot.
The coding sequence of AstD was codon optimized for A. thaliana. A chloroplast localization signal (CLS) of 35-amino acid residues derived from the N-terminal of A. thaliana DHAD (SEQ ID NO: 19) was fused to N-terminus of the codon optimized AstD. […]

Arabidopsis thaliana = experiment: Agar-based plant growth inhibition assay on MS media; type: in vivo; conditions: for growth of A. thaliana on MS media: 50 μM aspterric acid
Experimental: Agar-based growth inhibition assays were carried out on MS media (4.33 g Murashige and Skoog basal medium, 20 g sucrose, and 10 g Agar per liter MS media, pH was adjusted to 5.7 using KOH). Aspterric acid at a final concentration of 50 μM was included in the experimental media. DMSO at final concentration of 1% was used to increase the solubility of aspterric acid. The control MS media contained the same amount of DMSO, but no aspterric acid. Sterilized Arabidopsis thaliana seeds were plated on MS media. After 2 days of cold treatment at 4° C. in the dark, plates were transferred to standard growing condition (16 hour light and 8 hour dark at 22° C.) to geminate. After germination on day 4, the seedlings were transferred to MS media containing 50 μM aspterric acid. MS media containing only DMSO was used as a control. Images were taken at day 8 and day 12 to assay growth inhibition activity of aspterric acid on Arabidopsis thaliana.
as §1

[3] = system: pollen development in Arabidopsis thaliana; experiment: Pollen development in AA treated plants; type: in vivo; conditions: treated before flowering; listed as AA

CC(C)=C1CC[C@]23CO[C@H](C2)[C@@](O)(C(=O)O)CC[C@@H]13 [aspterric acid]
IC50 ([1]; Saccharomyces cerevisiae, ILV dropout media, read-out: IC50 of growth inhibition, yeast expressing fDHAD): ~2 µM | sensitivity to AA of yeast expressing fDHAD compared to yeast expressing AstD ([1]; ratio of IC50): approximately 100 times | growth of green bean seedlings on MS media (green bean seedlings): significant vegetative growth inhibition | growth of astD transgenic plants on media ([2]; 100 μM AA): relatively unaffected | growth of T2 astD transgenic plants after spray ([2]; 250 μM AA + glufosinate ammonium): no observable growth defects | growth of A. thaliana on MS media (Arabidopsis thaliana): significant vegetative growth inhibition | growth of A. thaliana on MS media (Arabidopsis thaliana; listed as AA): potently inhibit | growth of wild-type A. thaliana on media (Arabidopsis thaliana; 100 μM AA): strongly inhibited | pollen formation in AA treated A. thaliana [3]: failed to form normal pollen; also recorded: depleted of healthy and mature pollen
